Structures are written as SMILES.

For one test, the target named is T1, human Nav1.1 (Homo sapiens, UniProt P35498).
T1 construct: host or cells: HEK293
Briefly: Amplification of Nav1.1-derived voltage-gated sodium current (Nav1.1 current), automated patch clamp (Test 1). To be noted: Concentration for evaluation 1 μM; HEK293 cell line stably expressing human Nav1.1. The class given is cell-based. In a few lines:
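HEK293 cells stably expressing human Nav1.1, restricted to cells with >500 pA current, were recorded by automated voltage-clamp patch clamp with a ramp voltage stimulus. Compounds were applied in HEPES-buffered extracellular solution with 1% DMSO. Amplification (%) = 100×(peak or AUC after/before compound)−100.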
A general note: Patch clamp records ionic current or voltage across a cell membrane.
Regarding `CN(c1cnc2cnn(CC(=O)Nc3ccn4ncnc4c3)c2n1)C1CC1(C)C` (stereo not shown) [Example 631], the “Nav1.1 current amplification rate (%)” value came out at 49%.

With `CN(c1cnc2cnn(CC(=O)Nc3cnc4ncccc4c3)c2n1)C1CC1` [Example 723], the “Nav1.1 current amplification rate (%)” value is 95%.

For the compound `CC1CC=C(c2ccc(=O)n(CC(=O)N3CCc4c(CN5CCCCC5)cccc43)n2)CC1` (stereo not shown) [Example 282], the “Nav1.1 current amplification rate (%)” value amounted to 26%.

`COC1CCN(c2nccc3c2CCN3C(=O)Cn2nc(C3=CCC(C)CC3)ccc2=O)CC1` (stereo not shown) [Example 309]: the “Nav1.1 current amplification rate (%)” value stood at 71%.

As to `CC1CC=C(c2ccc(=O)n(CC(=O)N3CCc4c(-c5cc[nH]n5)ccc(F)c43)n2)CC1` (stereo not shown) [Example 292], the “Nav1.1 current amplification rate (%)” value is reported as 46%.

For the compound `CC1CC=C(c2ccc(=O)n(CC(=O)Nc3ccc4cnnn4c3)n2)CC1` (stereo not shown) [Example 345], the “Nav1.1 current amplification rate (%)” value is listed as 232%.

With `CC1CC=C(c2ccc(=O)n(CC(=O)N3CCc4c(CNC5COC5)cccc43)n2)CC1` (stereo not shown) [Example 313], the “Nav1.1 current amplification rate (%)” value turned out to be 84%.

For `CC(=O)N1CC(c2cccc3c2CCN3C(=O)Cn2ncc3ncc(N(C)C4CCC4)nc32)C1` [Example 695], the “Nav1.1 current amplification rate (%)” value stood at 219%.

Regarding `CN(c1cnc2cnn(CC(=O)Nc3ccc4cnnn4c3)c2n1)C1CC1` [Example 707], the “Nav1.1 current amplification rate (%)” value was 62%.

Take `Cc1cc(NC(=O)Cn2ncc3ncc(N(C)C4CCC4)nc32)cc2ncnn12` [Example 687]: the “Nav1.1 current amplification rate (%)” value came to 67%.

Take `CC1CC=C(c2ncc3cnn(CC(=O)Nc4ccn5ncnc5c4)c3n2)CC1` (racemic) [Example 764]: the “Nav1.1 current amplification rate (%)” value is recorded as 164%.

Take `CC1CC=C(c2ccc(=O)n(CC(=O)N3CCc4c3ccnc4C3=CCOCC3)n2)CC1` (stereo not shown) [Example 296]: the “Nav1.1 current amplification rate (%)” value is on record as 87%.

For the compound `Cc1cc(NC(=O)Cn2nc(C3=CCC(C)CC3)ccc2=O)cn2ncnc12` (stereo not shown) [Example 349], the “Nav1.1 current amplification rate (%)” value is 101%.

Staying with this test, now noted: Concentration for evaluation 3 μM; HEK293 cell line stably expressing human Nav1.1.
In the case of `CCN1CC(c2cccc3c2CCN3C(=O)Cn2nc(C3=CCC(C)CC3)ccc2=O)C1` (stereo not shown) [Example 302], the “Nav1.1 current amplification rate (%)” value amounted to 104%.

Take `COc1cnc(C)c(N2CCN(C(=O)Cn3nc(C4=CCC(C)CC4)ccc3=O)CC2)c1` (stereo not shown) [Example 418]: the “Nav1.1 current amplification rate (%)” value came to 105%.

In the case of `CC1CC=C(c2ccc(=O)n(CC(=O)N3CCN(c4ccccc4)CC3)n2)CC1` (stereo not shown) [Example 258], the “Nav1.1 current amplification rate (%)” value is recorded as 79%.

As to `CC1CC=C(c2ccc(=O)n(CC(=O)N3CCc4c(-c5ccnn5C)cccc43)n2)CC1` (stereo not shown) [Example 251], the “Nav1.1 current amplification rate (%)” value turned out to be 307%.

In the case of `CC1CC=C(c2ccc(=O)n(CC(=O)Nc3cccc(N4CCOCC4)c3F)n2)CC1` (stereo not shown) [Example 322], the “Nav1.1 current amplification rate (%)” value turned out to be 115%.

With `CC1CC=C(c2ccc(=O)n(CC(=O)N3CCc4c(C5CN(C(=O)CO)C5)cccc43)n2)CC1` (stereo not shown) [Example 321], the “Nav1.1 current amplification rate (%)” value was determined as 478%.

Still in this test, the particulars now being: Concentration for evaluation 10 μM; HEK293 cell line stably expressing human Nav1.1.
Take `CC1(C)CC=C(c2ccc(=O)n(CC(=O)Nc3ccn4ccnc4c3)n2)CC1` [Example 425]: the “Nav1.1 current amplification rate (%)” value was 283%.

Take `CC1CC=C(c2ccc(=O)n(CC(=O)N3CCC(Oc4ccccc4)CC3)n2)CC1` (stereo not shown) [Example 390]: the “Nav1.1 current amplification rate (%)” value is 50%.

As for `COc1cc(C2=CCC(C)CC2)nn(CC(=O)Nc2ccc3ocnc3c2)c1=O` (racemic) [Example 449], the “Nav1.1 current amplification rate (%)” value was 250%.

Turning to `CC1(C)CC=C(c2ccc(=O)n(CC(=O)Nc3ccn4ccnc4c3)n2)C1` [Example 465], the “Nav1.1 current amplification rate (%)” value came out at 186%.

Take `O=C(Cn1nc(-c2cc(Cl)cs2)ccc1=O)Nc1ccc2ocnc2c1` [Example 454]: the “Nav1.1 current amplification rate (%)” value stood at 157%.

Take `CC1CC=C(c2ccc(=O)n(CC(=O)Nc3ccn4cc(C(F)(F)F)nc4c3)n2)CC1` (racemic) [Example 421]: the “Nav1.1 current amplification rate (%)” value worked out at 199%.

Take `COc1cnc(C2=CCN(C(=O)Cn3nc(C4=CCC(C)CC4)ccc3=O)CC2)cn1` (stereo not shown) [Example 399]: the “Nav1.1 current amplification rate (%)” value worked out at 102%.

In the case of `Cc1cc(NC(=O)Cn2nc(N3CCC(C)CC3)ccc2=O)cc(C)n1` [Example 54], the “Nav1.1 current amplification rate (%)” value is on record as 20%.

On to `CC1CCN(c2nn(CC(=O)Nc3ccc(C#N)cc3)c(=O)c3c2CCCC3)CC1` [Example 36], for which the “Nav1.1 current amplification rate (%)” value was 312%.

As for `N#Cc1ccc(NC(=O)Cn2nc(N3CCCCC3)ccc2=O)cc1` [Example 3], the “Nav1.1 current amplification rate (%)” value worked out at 40%.

Consider `CC1CCN(c2ccc(=O)n(CC(=O)Nc3cncnc3)n2)CC1` [Example 56], for which the “Nav1.1 current amplification rate (%)” value was 10%.

On to `Cc1ccc(-c2ccc(=O)n(CC(=O)Nc3ccc4ocnc4c3)n2)cn1` [Example 452], for which the “Nav1.1 current amplification rate (%)” value is given as 10%.

`CC1CC=C(c2ccc(=O)n(CC(=O)Nc3ccc(C4=CCN(C)C4)nc3)n2)CC1` (stereo not shown) [Example 374]: the “Nav1.1 current amplification rate (%)” value worked out at 18%.

Take `CC1CC(C)CN(c2ccc(=O)n(CC(=O)Nc3ccc(C#N)cc3)n2)C1` (stereo not shown) [Example 14]: the “Nav1.1 current amplification rate (%)” value was 9%.

Consider `CC12CCC(CN(c3ccc(=O)n(CC(=O)Nc4ccc(C#N)cc4)n3)C1)C2(C)C` (stereo not shown) [Example 23], for which the “Nav1.1 current amplification rate (%)” value was 28%.

`CC1CCN(c2ccc(=O)n(CC(=O)Nc3ccc(C#N)cc3)n2)C1` (stereo not shown) [Example 19]: the “Nav1.1 current amplification rate (%)” value turned out to be 98%.

For the compound `COc1nc2cc(NC(=O)Cn3nc(N4CCC(C)CC4)ccc3=O)ccc2o1` [Example 99], the “Nav1.1 current amplification rate (%)” value was determined as 103%.

As for `CC1CC=C(c2ccc(=O)n(CC(=O)N3CCN(c4nccs4)CC3)n2)CC1` (stereo not shown) [Example 414], the “Nav1.1 current amplification rate (%)” value was determined as 40%.

Consider `CC1(C)CC=C(c2ccc(=O)n(CC(=O)Nc3ccn4nccc4c3)n2)CC1` [Example 427], for which the “Nav1.1 current amplification rate (%)” value came out at 172%.

Take `N#Cc1ccc(NC(=O)Cn2nc(N3CCCC3)ccc2=O)cc1` [Example 4]: the “Nav1.1 current amplification rate (%)” value was determined as 3%.

With `CC1CC=C(c2ccc(=O)n(CC(=O)Nc3ccn4ccnc4n3)n2)CC1` (stereo not shown) [Example 242], the “Nav1.1 current amplification rate (%)” value stood at 97%.

For `Cc1nccn1-c1cccc(NC(=O)Cn2nc(N3CCC(C)CC3)ccc2=O)c1` [Example 75], the “Nav1.1 current amplification rate (%)” value is 15%.

As to `COc1cc(=O)n(CC(=O)Nc2ccc3ocnc3c2)nc1C1=CCC(C(F)(F)F)CC1` (racemic) [Example 450], the “Nav1.1 current amplification rate (%)” value was found to be 187%.

For `CC1CCN(c2ccc(=O)n(CC(=O)Nc3ccc4oc(=O)n(C)c4c3)n2)CC1` [Example 81], the “Nav1.1 current amplification rate (%)” value is given as 69%.

In the case of `CCc1nc2cc(NC(=O)Cn3nc(N4CCC(C)CC4)ccc3=O)ccc2o1` [Example 97], the “Nav1.1 current amplification rate (%)” value was found to be 296%.

For the compound `COc1cc(C2=CCC(C(F)(F)F)CC2)nn(CC(=O)Nc2ccn3ccnc3c2)c1=O` (stereo not shown) [Example 462], the “Nav1.1 current amplification rate (%)” value worked out at 124%.

On to `CC1(C)CC=C(c2ccc(=O)n(CC(=O)N3CCN(c4cncc(F)c4)CC3)n2)CC1` [Example 444], for which the “Nav1.1 current amplification rate (%)” value is reported as 292%.

The same test, now with this note: Concentration for evaluation 50 μM; HEK293 cell line stably expressing human Nav1.1.
As to `CC1CC=C(c2ccc(=O)n(CC(=O)Nc3ccnc(C4=CCN(C)C4)c3)n2)CC1` (stereo not shown) [Example 371], the “Nav1.1 current amplification rate (%)” value turned out to be 64%.

Turning to `Cc1cc(-c2ncc3cnn(CC(=O)Nc4ccn5ncnc5c4)c3n2)oc1C` [Example 781], the “Nav1.1 current amplification rate (%)” value came to 15%.

The same test, now with this note: HEK293, Concentration for evaluation 1 μM; HEK293 cell line stably expressing human Nav1.1; read-out: Nav1.1 current amplification rate (%).
Regarding `CN(c1cnc2cnn(CC(=O)Nc3cnc4cccnc4c3)c2n1)C1CC2(CC2)C1` [Example 752], the activation at 1 µM worked out at 135%.

For the compound `CC1CC=C(c2cnc3cnn(CC(=O)Nc4ccc5ocnc5c4)c3n2)CC1` (stereo not shown) [Example 735], the activation at 1 µM was determined as 321%.

The same test, now with this note: HEK293, Concentration for evaluation 10 μM; HEK293 cell line stably expressing human Nav1.1; read-out: Nav1.1 current amplification rate (%).
As for `CN(c1cnc2cnn(CC(=O)N3Cc4ccc(Br)cc4C3)c2n1)C1CC2(CC2)C1` [Example 751], the activation at 10 µM came out at 121%.

Regarding `CN(C)c1cc(N2CCC3(CCC3)C2)nn(CC(=O)Nc2ccn3ccnc3c2)c1=O` [Example 210], the activation at 10 µM came to 178%.

The test is the same for the next values; noted with them: HEK293, Concentration for evaluation 50 μM; HEK293 cell line stably expressing human Nav1.1; read-out: Nav1.1 current amplification rate (%).
Turning to `Cc1ccc(-c2cnc3cnn(CC(=O)N4CCN(c5ccncc5)CC4)c3n2)c(F)c1` [Example 743], the activation at 50 µM turned out to be 39%.

The same test, now with this note: HEK293, concentration for evaluation 0.3 μM; HEK293 stably expressing human Nav1.1; read-out: Nav1.1 current amplification rate (%).
With `CN(c1ccc2cnn(CC(=O)N3CCc4c(C5CC5)cccc43)c2n1)C1CC1` [Example 887], the activation at 0.3 µM is 173%.

The same test, now with this note: HEK293, concentration for evaluation 1 μM; HEK293 stably expressing human Nav1.1; read-out: Nav1.1 current amplification rate (%).
On to `CN(CC1(C)CC1)c1ncc2cnn(CC(=O)Nc3cnc4cccnc4c3)c2n1` [Example 851], for which the activation at 1 µM came out at 89%.

For `Cc1cc(NC(=O)Cn2ncc3ccc(N(C)C4CC4)nc32)cc2ncnn12` [Example 886], the activation at 1 µM was found to be 125%.

For the compound `O=C(Cn1ncc2cnc(N3CCC4(CCC4)CC3)nc21)NC1=CC2N=CN=CC2C=C1` (stereo not shown) [Example 885], the activation at 1 µM worked out at 209%.

Still in this test, the particulars now being: HEK293, concentration for evaluation 50 μM; HEK293 stably expressing human Nav1.1; read-out: Nav1.1 current amplification rate (%).
Turning to `CC1CCN(c2ncc3cnn(CC(=O)N4CCN(c5cccnc5)CC4)c3n2)CC1` [Example 835], the activation at 50 µM turned out to be 118%.

The same test, now with this note: concentration for evaluation 1 μM; HEK293 stably expressing human Nav1.1.
`CN(CC1(C)CC1)c1ncc2cnn(CC(=O)Nc3ccn4ncnc4c3)c2n1` [Example 804]: the “Nav1.1 current amplification rate (%)” value amounted to 93%.

Consider `O=C(Cn1ncc2cnc(N3CCC4(CC4)C(F)(F)C3)nc21)Nc1cccnc1` [Example 826], for which the “Nav1.1 current amplification rate (%)” value turned out to be 31%.

Take `O=C(Cn1ncc2ccc(N3CCC4(CC3)CC4)nc21)Nc1ccn2ncnc2c1` [Example 855]: the “Nav1.1 current amplification rate (%)” value stood at 93%.

(Values after patent US20230109839A1, “THERAPEUTIC AGENT FOR TAUOPATHIES” (SUMITOMO PHARMA CO., LTD., priority 2020, published 2023).)
